From ChEMBL document CHEMBL1136641, “Anastatins A and B, new skeletal flavonoids with hepatoprotective activities from the desert plant Anastatica hierochuntica” (2003) come the findings set out here.

Each structure is given as a SMILES string.

The species entered for assay [1] is Mus musculus. Description: Inhibitory activity derived from Anastatica hierochuntica on D-Gal-induced cytotoxicity in primary cultured mouse hepatocytes at a concentration of 30 uM. In kind it is functional. The note with it: Hepatocyte.
The species named for assay [2] is Mus musculus. Briefly: Inhibitory activity derived from Anastatica hierochuntica on D-Gal-induced cytotoxicity in primary cultured mouse hepatocytes at a concentration of 10 uM. In kind it is functional. The note with it: Hepatocyte.
For assay [3], the species on record is Mus musculus. Briefly: Inhibitory activity derived from Anastatica hierochuntica on D-Gal-induced cytotoxicity in primary cultured mouse hepatocytes at a concentration of 3 uM. The note with it: Hepatocyte. Type of assay: functional.
For assay [4], the species on record is Mus musculus. Description: Inhibitory activity derived from Anastatica hierochuntica on D-Gal-induced cytotoxicity in primary cultured mouse hepatocytes at a concentration of 0 uM. In kind it is functional, Hepatocyte.

`O=C1C[C@@H](c2ccc(O)c(O)c2)Oc2cc(O)cc(O)c21` [ERIODICTYOL] gave an inhibition at 30 µM in the assay listed under Mus musculus [1] of 27.3%. The same compound showed an inhibition at 10 µM in the assay filed under Mus musculus [2] of 8.3%. The compound also had an inhibition at 3 µM in the assay filed under Mus musculus [3] of 5.9%. This compound showed an Inhibition in the assay filed under Mus musculus [4] of 0%.
Compound `COc1cc([C@H]2Oc3cc(O)cc(O)c3C(=O)[C@@H]2O)ccc1O` displayed an inhibition at 30 µM in the assay listed under Mus musculus [1] of 36.7%. Besides, the inhibition at 10 µM in the assay filed under Mus musculus [2] turned out to be 7.3%. The inhibition at 3 µM in the assay listed under Mus musculus [3] amounted to 4%. The compound further yielded an Inhibition in the assay filed under Mus musculus [4] of 0%.
Regarding `O=C1C[C@@H](c2ccc(O)cc2)Oc2cc(O)cc(O)c21` [NARINGENIN], the inhibition at 30 µM in the assay listed under Mus musculus [1] is 43.1%. In the assay listed under Mus musculus [2], the inhibition at 10 µM was determined as 9.3%. Besides, in the assay listed under Mus musculus [3], the inhibition at 3 µM amounted to 2.9%. The compound further returned an Inhibition in the assay listed under Mus musculus [4] of 0%.
`O=C1C[C@@H](c2ccc(O)cc2)Oc2c1c(O)cc1oc3cc(O)c(O)cc3c21` [ANASTATIN B] displayed an inhibition at 30 µM in the assay listed under Mus musculus [1] of 55%. Also, in the assay listed under Mus musculus [2], the inhibition at 10 µM is 40.5%. For the same compound, at 3 µM the inhibition in the assay filed under Mus musculus [3] was 28.6%. Further, the Inhibition in the assay filed under Mus musculus [4] worked out at 0%.
Turning to `O=C1C[C@@H](c2ccc(O)cc2)Oc2cc3oc4cc(O)c(O)cc4c3c(O)c21` [ANASTATIN A], the inhibition at 30 µM in the assay filed under Mus musculus [1] was found to be 46.2%. The compound also came in with an inhibition at 10 µM in the assay listed under Mus musculus [2] of 31.5%. In addition, in the assay listed under Mus musculus [3], the inhibition at 3 µM was determined as 17.2%. The compound further came in with an Inhibition in the assay filed under Mus musculus [4] of 0%.
For `O=C1c2c(O)cc(O)cc2O[C@H](c2ccc(O)cc2)[C@H]1O` [DIHYDROKAEMPFEROL] the same measures were 33.2%, 14.2%, 7.8% and 0%.
`O=C1c2c(O)cc(O)cc2O[C@@H](c2ccc(O)c(O)c2)[C@H]1O` [(+)-EPITAXIFOLIN] had an inhibition at 30 µM in the assay filed under Mus musculus [1] of 21.7%. The compound further registered an inhibition at 10 µM in the assay filed under Mus musculus [2] of 11%. In the assay listed under Mus musculus [3], this compound showed an inhibition at 3 µM of 2.1%. This compound also gave an Inhibition in the assay listed under Mus musculus [4] of 0%.
Take `COc1cc(C2Oc3cc([C@H]4Oc5cc(O)cc(O)c5C(=O)[C@@H]4O)ccc3OC2CO)ccc1O` (stereo partly specified) [SILIBININ]: 30 µM produced 45.2% inhibition in the assay filed under Mus musculus [1]. In the assay listed under Mus musculus [2], testing at 10 µM gave an inhibition of 7.7%. In the assay filed under Mus musculus [3], testing at 3 µM gave an inhibition of 4.8%. Further, the Inhibition in the assay listed under Mus musculus [4] was 0%.
Take `O=C1c2c(O)cc(O)cc2O[C@H](c2ccc(O)c(O)c2)[C@H]1O` [(+)-TAXIFOLIN]: the inhibition at 30 µM in the assay listed under Mus musculus [1] was 13%. Further, in the assay filed under Mus musculus [2], at 10 µM the inhibition was 11.7%. 3 µM produced 9.6% inhibition in the assay listed under Mus musculus [3]. For the same compound, the Inhibition in the assay filed under Mus musculus [4] came to 0%.
